Measured values: patent US3982931A, “N,N-di-sec.butyl-benzamide herbicides” (priority 1967, dated 1976)

Legend:
oryza sativa L. (rice) = assay: activity on agrarian species, soil treatment one day after sowing; assay type: in vivo; details: 6 kg/ha
How it was run: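 Activity scored 0 (no difference from control) to 4 (no germination or total containment of emerging plants), intermediates given both classes. Product spread on soil one day after sowing rice, at rates of 1, 3, 6, 8, 10, 12 and 14 kg/ha.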

avena sativa (oats) [1] = assay: as above; assay type: in vivo, Avena sativa L.; details: 6 kg/ha
[2] = test system: triticum vulgare L. (wheat); assay: as above; assay type: in vivo
How it was run: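 Wheat effects rated against untreated control on a 0 (no difference) to 4 (no germination or emergence fully contained) scale, with two-class scores for intermediate activity. Application was to soil one day post-sowing at rates of 1, 3, 6, 8, 10, 12 and 14 kg/ha.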

setaria glauca L. = assay: herbicidal activity, soil treatment one day after sowing; assay type: in vivo
[3] = test system: phaseolus vulgaris (bean); assay: activity on agrarian species, soil treatment one day after sowing; assay type: in vivo, Phaseolus vulgaris L.
How it was run: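 Activity on bean was rated from 0 (no difference from control) to 4 (germination prevented or plants fully contained at emergence), with both classes noted for intermediate effects. Soil treatment one day after sowing, at rates of 1, 3, 6, 8, 10, 12 and 14 kg/ha.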

pisum sativum L. (pea) = assay: as above; assay type: in vivo
[4] = test system: echinocloa crus-galli R.S.; assay: herbicidal activity, soil treatment one day after sowing; assay type: in vivo
zea mais L. (corn) = assay: activity on agrarian species, soil treatment one day after sowing; assay type: in vivo
How it was run: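 Crop injury rated 0–4 relative to control, from no difference up to complete germination failure or arrest of emerging plants; in-between responses get both values. Product spread on soil at 1–14 kg/ha (1, 3, 6, 8, 10, 12, 14) one day post-sowing.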

solanum Lycopersicum L. = assay: as above; assay type: in vivo
Source text: (§1) The infesting species and the agrarian species have been indicated in Table 1 by letters, as follows:
M = solanum Lycopersicum L.
(§2) Method of evaluation of the results (of tests):
(§3) 0 = no activity and no difference with respect to the control;
(§4) 1 slight differences with respect to the control;
(§5) 3 = considerable activity with damages that definitely impair the further development of most of the small plants; an activity degree already useful for practical purposes;
(§6) 4 = maximum of activity with lack of germination or total containment of the small plants in the emerging stage.
In the case of an intermediate activity between two classes of the scale, both values are recorded with the one which corresponds to the preeminent activity preceding. […]

chenopodium album L. = assay: herbicidal activity, soil treatment one day after sowing; assay type: in vivo
vicia sativa L. = assay: as above; assay type: in vivo
How it was run: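 Pre-emergence soil treatment one day after sowing; activity scored visually on a […] scale against untreated control, from slight difference (1) to no germination or total containment at emergence (4); intermediate activity recorded as both classes, preeminent value first.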

Echinocloa crus-galli = assay: Example 1 pot test, submerged rice-field earth, granular composition; assay type: in vivo; details: 3 kg/ha of active principle
Method: (§7) A series of pots were prepared filled with rice-field earth. Into these were then sown Echinocloa crus-galli and rice. The earth was then submerged by 10 cm of water and immediately thereafter were uniformly spread on the submerged soil granular compositions, some of them containing 2% of PA 234 and 98% of phosphorite, some others 5% of PA 234 and 95% of bentonite, in doses graduated from 0 - 8 kg of active principle per hectar. The test pots were kept in a conditioned environment at controlled temperature and photo-period.

rice = assay: as above; assay type: in vivo; details: maximum dose; doses 0 - 8 kg/ha
Method: as §7

[5] = test system: amaranthus retroflexus L.; assay: herbicidal activity, soil treatment one day after sowing; assay type: in vivo
avena sativa (oats) [6] = assay: activity on agrarian species, soil treatment one day after sowing; assay type: in vivo, Avena sativa L.
artemisia vulgaris L. = assay: herbicidal activity, soil treatment one day after sowing; assay type: in vivo
[7] = test system: beta vulgaris L. (sugar-beet); assay: activity on agrarian species, soil treatment one day after sowing; assay type: in vivo
Source text: as §1
H = beta vulgaris L. (sugar-beet)
as §2, §3, §4, §5, §6
In the case of an intermediate activity between two classes of the scale, both values are recorded with the one which corresponds to the preeminent activity preceding.
TABLE 2 reports the activity data of other compounds that fall within the class which is the object of this invention.
TABLE 3 reports data on the herbicidal activity against infesting herbs, while TABLE 4 reports data concerning the activity on useful species of agricultural cultivations. These tables employ the criterion explained previously. The product was spread on the soil one day after sowing, in quantities of 1, 3, 6, 8, 10, 12 and 14 kg/ha.

SMILES: CCC(C)N(C(=O)c1cc(Cl)cc(Cl)c1)C(C)CC (stereo not drawn) [PA234, 3,5-dichloro-N,N-di-sec.butyl-benzamide]
- activity on P, 0-4 scale (oryza sativa L. (rice)): 0
- activity on G, 0-4 scale (avena sativa (oats) [1]): 0
- activity on N, 0-4 scale ([2]; 2 kg/ha): 0
- activity on N, 0-4 scale ([2]; 4 kg/ha): 0
- activity on N, 0-4 scale ([2]; 6 kg/ha): 0
- activity on E, 0-4 scale (setaria glauca L.; 0-5 kg/ha (so in the source)): 3-2
- activity on E, 0-4 scale (setaria glauca L.; 0.5 kg/ha): 3-2
- activity on E, 0-4 scale (setaria glauca L.; 1 kg/ha): 3-4
- activity on E, 0-4 scale (setaria glauca L.; 2 kg/ha): 4
- activity on E, 0-4 scale (setaria glauca L.; 4 kg/ha): 4
- activity on E, 0-4 scale (setaria glauca L.; 6 kg/ha): 4
- activity on I, 0-4 scale ([3]; 2 kg/ha): 0
- activity on I, 0-4 scale ([3]; 4 kg/ha): 0
- activity on I, 0-4 scale ([3]; 6 kg/ha): 0
- activity on L, 0-4 scale (pisum sativum L. (pea); 2 kg/ha): 0
- activity on L, 0-4 scale (pisum sativum L. (pea); 4 kg/ha): 0
- activity on L, 0-4 scale (pisum sativum L. (pea); 6 kg/ha): 0
- activity on D, 0-4 scale ([4]; 0-5 kg/ha (so in the source)): 2-1
- activity on D, 0-4 scale ([4]; 0.5 kg/ha): 2-1
- activity on D, 0-4 scale ([4]; 1 kg/ha): 2-3
- activity on D, 0-4 scale ([4]; 2 kg/ha): 4
- activity on D, 0-4 scale ([4]; 4 kg/ha): 4
- activity on D, 0-4 scale ([4]; 6 kg/ha): 4
- activity on O, 0-4 scale (zea mais L. (corn); 2 kg/ha): 0
- activity on O, 0-4 scale (zea mais L. (corn); 4 kg/ha): 0
- activity on O, 0-4 scale (zea mais L. (corn); 6 kg/ha): 0
- activity on M, 0-4 scale (solanum Lycopersicum L.; 2 kg/ha): 1
- activity on M, 0-4 scale (solanum Lycopersicum L.; 4 kg/ha): 1
- activity on M, 0-4 scale (solanum Lycopersicum L.; 6 kg/ha): 1
- activity on C, 0-4 scale (chenopodium album L.; 2 kg/ha): 1
- activity on C, 0-4 scale (chenopodium album L.; 4 kg/ha): 2-1
- activity on C, 0-4 scale (chenopodium album L.; 6 kg/ha): 2
- activity on F, 0-4 scale (vicia sativa L.; 2 kg/ha): 0
- activity on F, 0-4 scale (vicia sativa L.; 4 kg/ha): 0
- activity on F, 0-4 scale (vicia sativa L.; 6 kg/ha): 0
- growth of Echinocloa crus-galli (Echinocloa crus-galli): totally inhibited
- damage to rice (rice): remained undamaged
- activity on A, 0-4 scale ([5]; 2 kg/ha): 1-2
- activity on A, 0-4 scale ([5]; 4 kg/ha): 2
- activity on A, 0-4 scale ([5]; 6 kg/ha): 2-3
- activity on G, 0-4 scale (avena sativa (oats) [6]; 2 kg/ha): 0
- activity on G, 0-4 scale (avena sativa (oats) [6]; 4 kg/ha): 0
- activity on B, 0-4 scale (artemisia vulgaris L.; 2 kg/ha): 0-1
- activity on B, 0-4 scale (artemisia vulgaris L.; 4 kg/ha): 1
- activity on B, 0-4 scale (artemisia vulgaris L.; 6 kg/ha): 1-2
- activity on H, 0-4 scale ([7]; 2 kg/ha): 0
- activity on H, 0-4 scale ([7]; 4 kg/ha): 1
- activity on H, 0-4 scale ([7]; 6 kg/ha): 1
